Results taken from patent US12285526B2, “Nanoparticle composition with reduced contaminant and production method thereof” (Shionogi & Co., Ltd., priority 2019, dated 2025).

Assay: Particle size of drug particles after bead mill grinding (Microtrac UPA 150 M)
Assay type: physicochemical
Conditions: slurry with PVP K-25 3 w/w % and sodium lauryl sulfate 0.25 w/w % in water, pH 6.07-10.37; zirconia beads 0.5 mm; ground 120 minutes
Procedure: Phenitoin (Shizuoka Caffein Co., Ltd.) (7.5 g, 5 w/w %) as a drug, polyvinylpyrrolidone (PVP K-25, BASF Japan Ltd.) (4.5 g, 3 w/w %) as a polymer compound, sodium lauryl sulfate (Cognis Japan Ltd.) (0.375 g, 0.25 w/w %) as a surfactant were dispersed in 137.6 g of purified water to prepare a slurry. The pH of the slurry was 3.88. The pH was adjusted by adding 1N aqueous sodium hydroxide solution to this slurry, and samples having various pH (pH 6.07, 6.68, 7.36, 8.14, 8.96, 10.37) were prepared.
Each sample (100 g) and beads (217.3 g, filling ratio 70%) were charged into Dyno-mill Research Lab (manufactured by WAB), and the grinding process by the bead mill was carried out for 120 minutes (disc peripheral speed: 4 m/s, temperature: 20° C., fluid speed: 45 g/min). The beads used for the grinding process were YTZ ball (zirconia beads manufactured by Nikkato Corporation, with diameter of 0.5 mm). As used herein, the term “filling ratio” refers to the ratio (in percentage) of the true volume to the bulk volume of the beads, and hereinafter the same is applied.
The particle size of the drug particles after the grinding process was nano-order of less than 1 μm (D50 value). The particle size was determined using Microtrac UPA 150 M (MicrotracBEL Corp.). […]

Compound: O=C1NC(=O)C(c2ccccc2)(c2ccccc2)N1 [Phenitoin, Phenytoin]
- particle size of the drug particles after the grinding process (D50 value): less than 1 μm
